Where “and” joins values, the source holds several entries; their conditions need not be identical. Equal values may be shown once. Read-outs that look alike come from different tables or passages of the source.
Columns and labels:
M.tb PGDH (Native) [1] = biological target: T1, M.tb PGDH (Native) (Mycobacterium tuberculosis, UniProt P9WNX3); type: biochemical
T1 sequence (P9WNX3 1-528): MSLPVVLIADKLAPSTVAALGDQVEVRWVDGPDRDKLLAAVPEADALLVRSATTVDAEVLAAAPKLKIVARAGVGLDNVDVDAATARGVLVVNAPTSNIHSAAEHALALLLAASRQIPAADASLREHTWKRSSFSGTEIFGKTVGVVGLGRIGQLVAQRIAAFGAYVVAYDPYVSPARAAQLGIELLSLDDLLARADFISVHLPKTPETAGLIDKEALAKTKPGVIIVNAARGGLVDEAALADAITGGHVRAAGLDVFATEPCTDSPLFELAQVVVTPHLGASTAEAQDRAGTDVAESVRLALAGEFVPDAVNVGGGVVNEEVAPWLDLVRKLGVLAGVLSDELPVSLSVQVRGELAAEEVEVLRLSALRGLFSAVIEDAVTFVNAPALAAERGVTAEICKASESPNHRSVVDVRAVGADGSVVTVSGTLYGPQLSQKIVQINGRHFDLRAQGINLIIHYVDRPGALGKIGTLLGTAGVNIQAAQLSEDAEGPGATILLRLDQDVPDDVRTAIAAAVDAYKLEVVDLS

M.tb PGDH = biological target: T2, M.tb PGDH (Mycobacterium tuberculosis, UniProt P9WNX3); type: binding
T2 sequence (P9WNX3 1-528): T1 sequence (P9WNX3 1-528)

Human PGDH = Human PGDH (Homo sapiens, UniProt O43175); experiment: Serine effect on human PGDH; type: biochemical; conditions: unpublished result
E. coli PGDH [2] = conditions: read-out: IC50 for L-serine; cited from earlier work
PGDH from B. subtilis = conditions: read-out: IC50 (serine); cited from earlier work
PGDH from C. glutamicum = conditions: read-out: IC50 (serine); cited from earlier work
rat liver PGDH = conditions: cited from earlier work
chicken liver PGDH = conditions: cited from earlier work
M.tb PGDH (Native) [3] = biological target: T1, M.tb PGDH (Native); conditions: read-out: Km (NADH), homotropic positive cooperativity; cited from earlier work
E. coli PGDH [4] = conditions: read-out: Kd (NADH), without cooperativity; cited from earlier work

Chain of Human PGDH (O43175 whole entry): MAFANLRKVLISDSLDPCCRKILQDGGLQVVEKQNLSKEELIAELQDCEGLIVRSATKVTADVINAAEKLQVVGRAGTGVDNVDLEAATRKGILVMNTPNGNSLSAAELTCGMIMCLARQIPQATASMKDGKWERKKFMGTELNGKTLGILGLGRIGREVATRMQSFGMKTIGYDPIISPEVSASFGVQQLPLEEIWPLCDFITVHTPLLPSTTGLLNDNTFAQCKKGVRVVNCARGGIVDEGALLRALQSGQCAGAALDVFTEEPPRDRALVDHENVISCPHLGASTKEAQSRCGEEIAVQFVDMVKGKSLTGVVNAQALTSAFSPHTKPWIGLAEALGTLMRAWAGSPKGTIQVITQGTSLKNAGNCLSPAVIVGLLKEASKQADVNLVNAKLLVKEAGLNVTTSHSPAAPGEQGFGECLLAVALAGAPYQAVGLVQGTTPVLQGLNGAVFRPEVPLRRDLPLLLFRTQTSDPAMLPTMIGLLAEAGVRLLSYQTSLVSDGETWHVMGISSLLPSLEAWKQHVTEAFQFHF

SMILES: O=C(O)C(=O)COP(=O)(O)O [HPAP, hydroxypyruvic acid phosphate]
- Ki (M.tb PGDH (Native) [1]): 950 ± 120 µM
- kcat (M.tb PGDH (Native) [1]): 2461 ± 281 s⁻¹
- Km (M.tb PGDH (Native) [1]; pH 7.5): 170 ± 50 µM
- HPAP binding transient (enzyme fluorescence increase) (M.tb PGDH): rapid binding

SMILES: N[C@@H](CO)C(=O)O [L-serine, reference compound]
- effect of serine on enzyme activity (Human PGDH): not inhibited
- effect of serine on enzyme activity (Human PGDH; listed as serine): not affected
- IC50 (PGDH from B. subtilis): ~600 µM
- IC50 (PGDH from C. glutamicum): ~10000 µM
- effect of serine on enzyme activity (rat liver PGDH): no effect
- effect of serine on enzyme activity (chicken liver PGDH): no effect

SMILES: NC(=O)C1=CN([C@@H]2O[C@H](COP(=O)(O)OP(=O)(O)OC[C@H]3O[C@@H](n4cnc5c(N)ncnc54)[C@H](O)[C@@H]3O)[C@@H](O)[C@H]2O)C=CC1 [NADH]
- NADH concentration needed to produce a rate equal to the kcat (M.tb PGDH): at least 65 mM
- on-rate for NADH binding (M.tb PGDH): occurs within the dead-time of the instrument
- on-rates for NADH binding (M.tb PGDH): zero
- off-rate of NADH binding (M.tb PGDH; pH 7.5): 0.34 sec ^−1 and 0.21 sec ^−1
- Kd (M.tb PGDH; read-out: Kd for NADH binding): 15 to 30 µM
- Km (M.tb PGDH (Native) [3]): ~50 µM
- Kd (E. coli PGDH [4]): < 0.5 µM

SMILES: O=C(O)C(O)COP(=O)(O)O [phosphoglyceric acid, D-3-phosphoglyceric acid]
- effect on the rate of NADH binding (M.tb PGDH): did not significantly enhance

Source: paper PMC2551328 (Biochemistry, 2008)
